Values quoted from earlier work in patent US8412321B2, “Method of identifying strategies for treatment or prevention of ventricular fibrillation and ventricular tachycardia” (Cornell Research Foundation, Inc., priority 2004, dated 2013).

System: arterially perfused canine ventricle

In the case of `COc1ccc(CCN(C)CCCC(C#N)(c2ccc(OC)c(OC)c2)C(C)C)cc1OC` (stereo not drawn) [verapamil], the “slope of the APD restitution relation” value (after exposure to verapamil, FIG. 14A) is listed as “reduction in the slope of the APD restitution relation”, the “magnitude of APD alternans (AM)” value (pacing at different basic cycle lengths, FIG. 14B) is listed as “reduction in the magnitude of APD alternans” and the “composite FFT of MAP recordings during VF” value (verapamil added after 35 min of VF, FIG. 14C) is listed as “converted the broad FFT spectra during VF to a single frequency”.
